Assay results as given in ChEMBL document CHEMBL4725429, “Discovery and Evaluation of Pyrazolo[3,4-d]pyridazinone as a Potent and Orally Active Irreversible BTK Inhibitor” (ACS Med Chem Lett, 2020).

How the values were obtained:
[1] = biological target: Tyrosine-protein kinase BTK (Homo sapiens, UniProt Q06187); assay: Inhibition of recombinant human His-tagged full length BTK expressed in baculovirus expression system using TK1 as substrate incubated for 60 mins by HTRF assay
[2] = biological target: T1, Cytochrome P450 1A2 (Homo sapiens, UniProt P05177); assay: Inhibition of human liver microsome CYP1A2 using phenacetin as substrate preincubated for 10 mins followed by substrate and NADPH addition and measured after 10 mins by LC-MS/MS analysis
T1 sequence (P05177 whole entry): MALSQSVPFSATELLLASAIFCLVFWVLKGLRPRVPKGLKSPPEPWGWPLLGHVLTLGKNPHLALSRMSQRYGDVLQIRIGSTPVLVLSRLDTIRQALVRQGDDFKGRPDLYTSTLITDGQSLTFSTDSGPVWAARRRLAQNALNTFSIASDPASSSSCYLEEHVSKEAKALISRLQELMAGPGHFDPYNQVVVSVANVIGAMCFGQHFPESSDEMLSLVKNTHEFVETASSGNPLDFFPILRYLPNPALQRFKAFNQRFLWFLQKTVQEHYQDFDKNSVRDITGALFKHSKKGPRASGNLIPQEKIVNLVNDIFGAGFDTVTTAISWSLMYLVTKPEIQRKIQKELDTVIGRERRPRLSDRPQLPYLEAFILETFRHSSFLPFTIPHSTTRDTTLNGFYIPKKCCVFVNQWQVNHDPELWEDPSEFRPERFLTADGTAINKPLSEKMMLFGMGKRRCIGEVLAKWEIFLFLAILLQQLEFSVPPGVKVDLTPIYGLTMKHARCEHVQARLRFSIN

[3] = Half life in Sprague-Dawley rat at 2 mg/kg, iv measured upto 24 hrs by LC-MS/MS analysis; format: ADME, organism-based; details: in vivo
[4] = AUC (0 to last) in Sprague-Dawley rat at 2 mg/kg, iv measured upto 24 hrs by LC-MS/MS analysis; format: ADME, organism-based; design: route intravenous, dose 2 mg/kg, time <=24; details: in vivo
[5] = Oral bioavailability in Sprague-Dawley rat at 10 mg/kg measured upto 24 hrs by LC-MS/MS analysis; format: ADME, organism-based; details: in vivo
[6] = biological target: Cytochrome P450 2C19 (Homo sapiens, UniProt P33261); assay: Inhibition of human liver microsome CYP2C19 using S-mephenytoin as substrate preincubated for 10 mins followed by substrate and NADPH addition and measured after 10 mins by LC-MS/MS analysis
Sequence of Cytochrome P450 2C19 (P33261 whole entry): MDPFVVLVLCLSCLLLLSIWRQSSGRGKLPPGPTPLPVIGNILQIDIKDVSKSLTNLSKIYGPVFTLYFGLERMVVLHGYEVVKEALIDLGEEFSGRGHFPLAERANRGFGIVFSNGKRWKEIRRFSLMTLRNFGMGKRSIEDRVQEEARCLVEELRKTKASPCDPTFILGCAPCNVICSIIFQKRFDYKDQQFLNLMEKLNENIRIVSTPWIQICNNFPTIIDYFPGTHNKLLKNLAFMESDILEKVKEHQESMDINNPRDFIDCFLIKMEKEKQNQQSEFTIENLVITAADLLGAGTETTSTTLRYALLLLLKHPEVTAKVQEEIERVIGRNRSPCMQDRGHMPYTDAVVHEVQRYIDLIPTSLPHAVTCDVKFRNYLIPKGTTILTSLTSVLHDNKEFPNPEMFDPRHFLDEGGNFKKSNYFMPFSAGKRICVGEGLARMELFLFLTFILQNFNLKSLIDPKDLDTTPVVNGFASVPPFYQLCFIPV

[7] = AUC in BALB/c mouse 2 mg/kg, po measured upto 24 hrs by LC-MS/MS analysis; format: ADME, organism-based; design: route oral, dose 2 mg/kg, time <=24; details: in vivo
[8] = Cmax in Sprague-Dawley rat at 2 mg/kg, iv measured upto 24 hrs by LC-MS/MS analysis; format: ADME, organism-based; design: route intravenous, time <=24; details: in vivo
[9] = Half life in BALB/c mouse at 1 mg/kg, iv measured upto 24 hrs by LC-MS/MS analysis; format: ADME, organism-based; details: in vivo
[10] = Volume of distribution at steady state in Sprague-Dawley rat at 2 mg/kg, iv measured upto 24 hrs by LC-MS/MS analysis; format: ADME, organism-based; details: in vivo, read-out: Vdss
[11] = Toxicity in mouse assessed as body weight loss at 3 and 10 mg/kg, po administered for 14 days and observed for 21 days; format: organism-based; details: in vivo, 336 h, dose 3-10 mg/kg, time 14 day
[12] = system: Mus musculus; assay: Antiarthritic activity in po dosed collagen-induced arthritis mouse model assessed as clinical score administered for 14 days and measured for 21 days after dosing; format: functional, organism-based; details: dose mg/kg 3-10, time 14.0 day
[13] = Protein binding in rat plasma at 2 uM incubated for 4 hrs by LC-MS/MS analysis; format: ADME, cell-free; details: read-out: PPB (converted)
[14] = biological target: Cytochrome P450 2D6 (Homo sapiens, UniProt P10635); assay: Inhibition of human liver microsome CYP2D6 using dextromethorphan as substrate preincubated for 10 mins followed by substrate and NADPH addition and measured after 10 mins by LC-MS/MS analysis
Sequence of Cytochrome P450 2D6 (P10635 whole entry): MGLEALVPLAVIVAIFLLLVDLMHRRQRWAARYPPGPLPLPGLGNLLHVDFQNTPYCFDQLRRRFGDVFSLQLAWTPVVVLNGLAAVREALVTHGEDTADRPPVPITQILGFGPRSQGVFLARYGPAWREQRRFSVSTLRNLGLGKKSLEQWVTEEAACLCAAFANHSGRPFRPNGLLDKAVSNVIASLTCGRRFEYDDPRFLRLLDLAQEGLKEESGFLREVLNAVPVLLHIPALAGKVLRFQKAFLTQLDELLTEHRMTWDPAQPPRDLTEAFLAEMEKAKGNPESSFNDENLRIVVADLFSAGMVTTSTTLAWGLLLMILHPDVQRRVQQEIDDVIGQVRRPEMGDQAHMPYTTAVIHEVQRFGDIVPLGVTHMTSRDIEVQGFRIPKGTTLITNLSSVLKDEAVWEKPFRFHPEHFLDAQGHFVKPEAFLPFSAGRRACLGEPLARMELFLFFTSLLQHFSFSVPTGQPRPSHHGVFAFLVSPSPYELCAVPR

[15] = Protein binding in human plasma at 2 uM incubated for 4 hrs by LC-MS/MS analysis; format: ADME, cell-free; details: read-out: PPB (converted)
[16] = Toxicity in mouse assessed as drug tolerance at 3 and 10 mg/kg, po administered for 14 days and observed for 21 days; format: organism-based; details: in vivo, 336 h, dose 3-10 mg/kg, time 14 day
[17] = Clearance in BALB/c mouse at 1 mg/kg, iv measured upto 24 hrs by LC-MS/MS analysis; details: in vivo
[18] = Volume of distribution at steady state in BALB/c mouse at 1 mg/kg, iv measured upto 24 hrs by LC-MS/MS analysis; format: ADME, organism-based; details: in vivo, read-out: Vdss
[19] = AUC (0 to last) in BALB/c mouse at 1 mg/kg, iv measured upto 24 hrs by LC-MS/MS analysis; format: ADME, organism-based; design: route intravenous, dose 1 mg/kg, time <=24; details: in vivo
[20] = Oral bioavailability in BALB/c mouse at 2 mg/kg measured upto 24 hrs by LC-MS/MS analysis; format: ADME, organism-based; details: in vivo
[21] = AUC (0 to last) in Sprague-Dawley rat at 10 mg/kg, po measured upto 24 hrs by LC-MS/MS analysis; format: ADME, organism-based; design: route oral, dose 10 mg/kg, time <=24; details: in vivo
[22] = biological target: Cytochrome P450 2C9 (Homo sapiens, UniProt P11712); assay: Inhibition of human liver microsome CYP2C9 using diclofenac as substrate preincubated for 10 mins followed by substrate and NADPH addition and measured after 10 mins by LC-MS/MS analysis
Sequence of Cytochrome P450 2C9 (P11712 whole entry): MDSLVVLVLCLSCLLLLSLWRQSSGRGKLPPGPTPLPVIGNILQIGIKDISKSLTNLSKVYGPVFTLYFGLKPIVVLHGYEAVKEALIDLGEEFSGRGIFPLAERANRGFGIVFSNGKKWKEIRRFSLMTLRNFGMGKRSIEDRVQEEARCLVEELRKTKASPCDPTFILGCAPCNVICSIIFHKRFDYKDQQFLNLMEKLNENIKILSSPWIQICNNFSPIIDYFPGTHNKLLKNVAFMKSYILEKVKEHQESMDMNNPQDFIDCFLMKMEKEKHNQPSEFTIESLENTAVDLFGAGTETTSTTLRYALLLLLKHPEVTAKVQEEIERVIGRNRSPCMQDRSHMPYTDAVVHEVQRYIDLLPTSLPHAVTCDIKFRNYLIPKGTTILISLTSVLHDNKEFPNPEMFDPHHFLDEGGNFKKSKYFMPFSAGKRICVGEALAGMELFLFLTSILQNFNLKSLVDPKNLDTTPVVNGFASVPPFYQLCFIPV

[23] = Clearance in Sprague-Dawley rat at 2 mg/kg, iv measured upto 24 hrs by LC-MS/MS analysis; details: in vivo
[24] = biological target: Cytochrome P450 3A4 (Homo sapiens, UniProt P08684); assay: Inhibition of human liver microsome CYP3A4 using midazolam as substrate preincubated for 10 mins followed by substrate and NADPH addition and measured after 10 mins by LC-MS/MS analysis
Sequence of Cytochrome P450 3A4 (P08684 whole entry): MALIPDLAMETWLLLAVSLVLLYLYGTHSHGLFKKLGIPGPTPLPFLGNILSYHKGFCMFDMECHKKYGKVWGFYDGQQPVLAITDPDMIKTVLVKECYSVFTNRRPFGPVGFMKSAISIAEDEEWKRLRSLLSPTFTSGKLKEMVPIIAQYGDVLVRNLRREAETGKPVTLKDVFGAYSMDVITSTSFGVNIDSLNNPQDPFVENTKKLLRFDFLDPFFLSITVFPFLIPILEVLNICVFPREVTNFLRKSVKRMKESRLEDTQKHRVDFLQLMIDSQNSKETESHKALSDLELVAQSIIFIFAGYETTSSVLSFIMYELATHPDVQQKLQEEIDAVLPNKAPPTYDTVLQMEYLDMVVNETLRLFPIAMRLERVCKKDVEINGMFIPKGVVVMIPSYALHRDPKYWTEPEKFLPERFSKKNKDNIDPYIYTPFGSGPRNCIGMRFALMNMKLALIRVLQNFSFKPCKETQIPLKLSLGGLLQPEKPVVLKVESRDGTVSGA

[25] = Cmax in BALB/c mouse 2 mg/kg, po measured upto 24 hrs by LC-MS/MS analysis; format: ADME, organism-based; design: route oral, dose 2 mg/kg, time <=24; details: in vivo
[26] = Protein binding in mouse plasma at 2 uM incubated for 4 hrs by LC-MS/MS analysis; format: ADME, cell-free; details: read-out: PPB (converted)

Sequence of Tyrosine-protein kinase BTK (Q06187 whole entry): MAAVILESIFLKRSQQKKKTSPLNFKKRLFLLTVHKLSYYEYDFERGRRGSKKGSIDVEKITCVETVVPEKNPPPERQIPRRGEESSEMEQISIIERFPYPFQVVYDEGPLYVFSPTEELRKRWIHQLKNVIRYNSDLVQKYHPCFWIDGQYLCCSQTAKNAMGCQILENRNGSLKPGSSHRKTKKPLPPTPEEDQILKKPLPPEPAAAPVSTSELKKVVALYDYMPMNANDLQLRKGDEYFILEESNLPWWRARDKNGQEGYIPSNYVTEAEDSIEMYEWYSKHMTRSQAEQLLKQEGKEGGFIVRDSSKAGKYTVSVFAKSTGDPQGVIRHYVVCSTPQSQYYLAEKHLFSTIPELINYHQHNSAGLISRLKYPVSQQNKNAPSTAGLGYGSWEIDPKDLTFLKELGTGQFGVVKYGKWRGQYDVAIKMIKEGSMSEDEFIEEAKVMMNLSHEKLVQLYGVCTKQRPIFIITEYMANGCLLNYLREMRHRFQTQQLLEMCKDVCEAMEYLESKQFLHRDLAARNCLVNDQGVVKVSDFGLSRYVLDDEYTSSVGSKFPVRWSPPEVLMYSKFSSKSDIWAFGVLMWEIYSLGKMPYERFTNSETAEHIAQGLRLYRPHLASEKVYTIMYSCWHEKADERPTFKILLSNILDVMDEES

Compound C=CC(=O)N1CC(n2nc(-c3ccc(Oc4ccccc4)cc3)c3c(N)n[nH]c(=O)c32)C1 has an IC50 [1] of 9.8 nM.

Work on C=CS(=O)(=O)N1CCC[C@@H](n2nc(-c3ccc(Oc4ccccc4)cc3)c3c(N)n[nH]c(=O)c32)C1 yielded an IC50 [1] of 4.2 nM.

For C=CC(=O)N1CCC[C@@H](n2nc(-c3ccc(Oc4ccccc4)cc3)c3c(N)n[nH]c(=O)c32)C1, the IC50 [2] was > 100000 nM, the half-life ([3]; Sprague-Dawley) was 19.2 min and the IC50 [1] was 2.1 nM. The AUC(0-t) at 24 h ([4]; Sprague-Dawley) was 604 ng·h/mL, the bioavailability [5] was 23.7% and the IC50 [6] was 43900 nM. The AUC at 24 h [7] was 128 ng·h/mL, the Cmax ([8]; Sprague-Dawley, read-out: Cmax) was 466 ng/mL and the half-life [9] was 25.2 min. The Vd [10] was 1.55 L/kg, the Activity [11] was “Non-Toxic” and the Activity [12] was “Dose-dependent effect”. The fraction unbound at 4 h, 2 µM [13] was 0.003, the IC50 [14] was > 100000 nM and the fraction unbound at 4 h, 2 µM [15] was 0.025. For the same compound, the Activity [16] was “Non-Toxic”, the clearance [17] was 31.3 mL/min/kg and the Vd [18] was 0.82 L/kg. It also gave an AUC(0-t) at 24 h [19] of 576 ng·h/mL, a bioavailability [20] of 11.2% and an AUC(0-t) at 24 h [21] of 642 ng·h/mL. The IC50 [22] was 39600 nM, the clearance [23] was 54.6 mL/min/kg and the IC50 [24] was 37300 nM. For the same compound, the Cmax [25] was 252 nM and the fraction unbound at 4 h, 2 µM [26] was 0.047.

For C=CC(=O)N1CCC[C@@H](n2nc(-c3ccc(Oc4ccccc4)cc3)c3c(N)noc(=O)c32)C1, the IC50 [1] was > 1000 nM.

Compound C=CC(=O)N1CC2(CC(n3nc(-c4ccc(Oc5ccccc5)cc4)c4c(N)n[nH]c(=O)c43)C2)C1 has an IC50 [1] of 46 nM.

In the case of CN(C)C/C=C/C(=O)N(C)CCn1nc(-c2ccc(Oc3ccccc3)cc2)c2c(N)n[nH]c(=O)c21, the IC50 [1] is reported as 35 nM.

For Nc1n[nH]c(=O)c2c1c(-c1ccc(Oc3ccccc3)cc1)nn2[C@@H]1CCCN(C(=O)/C=C/CN2CCOCC2)C1, the IC50 [1] was 13 nM.

With C=CC(=O)N1CCCC(n2nc(-c3ccc(Oc4ccccc4)cc3)c3cc4c(N)noc4cc32)C1 (stereo not drawn) the IC50 [1] was 4660 nM.

For C=CC(=O)N1CCC[C@@H](n2nc(-c3ccc(Oc4ccccc4)cc3)c3c(N)ncnc32)C1 [IBRUTINIB], the t1/2 ([3]; 2 mg/kg, 24 h) was 19.2 min, the AUClast ([4]; 24 h) was 643 ng·h/mL and the bioavailability [5] was 10.3%. It also gave an AUC at 24 h [7] of 21.4 ng·h/mL, a Cmax ([8]; 24 h) of 150 ng/mL and a half-life [9] of 20.4 min. The fraction unbound at 4 h, 2 µM [13] was 0.022, the fraction unbound at 4 h, 2 µM [15] was 0.031 and the AUC(0-t) at 24 h [19] was 628 ng·h/mL. It also gave a bioavailability [20] of 1.8%, an AUC(0-t) at 24 h [21] of 318 ng·h/mL and a Cmax [25] of 55.3 nM. For the same compound, the fraction unbound at 4 h, 2 µM [26] was 0.038.

C=CC(=O)N[C@H]1CC[C@@H](n2nc(-c3ccc(Oc4ccccc4)cc3)c3c(N)n[nH]c(=O)c32)CC1 gave an IC50 [1] of 1.6 nM, an AUC at 24 h [7] of 161 ng·h/mL and a Cmax [25] of 290 nM.

C=CC(=O)N(C)CCn1nc(-c2ccc(Oc3ccccc3)cc2)c2c(N)n[nH]c(=O)c21 showed an IC50 [1] of 1.2 nM, an AUC at 24 h [7] of 49.5 ng·h/mL and a Cmax [25] of 123 nM.

For C=CC(=O)N1CCC[C@@H](n2nc(-c3ccc(Oc4ccccc4)cc3)c3c(N)nn(CC)c(=O)c32)C1, the IC50 [1] was > 1000 nM.

Compound N#C/C(=C\C1CC1)C(=O)N1CCC[C@@H](n2nc(-c3ccc(Oc4ccccc4)cc3)c3c(N)n[nH]c(=O)c32)C1 has an IC50 [1] of 22 nM.

With C=CC(=O)N1CCCC(n2nc(-c3ccc(Oc4ccccc4)cc3)c3cc4c(N)ncnc4cc32)C1 (stereo not drawn) the IC50 [1] was 1240 nM.

For C=CC(=O)N1CCC[C@@H](Nc2ncnc3[nH]c(=O)c(-c4ccc(Oc5ccccc5)cc4)cc23)C1, the IC50 [1] was > 10000 nM.

In the case of C=CC(=O)N1CCC[C@@H](Nc2ncnc(N)c2-n2ncc3cc(Oc4ccccc4)ccc32)C1, the IC50 [1] is reported as 1670 nM.

In the case of CC#CC(=O)N1CCC[C@@H](n2nc(-c3ccc(Oc4ccccc4)cc3)c3c(N)n[nH]c(=O)c32)C1, the IC50 [1] is reported as 12 nM.

For C=CC(=O)N1CCC[C@@H](n2nc(-c3ccc(Oc4ccccc4)cc3)c3c(N)nn(CC(F)(F)F)c(=O)c32)C1, the IC50 [1] was > 1000 nM.

In the case of C=CC(=O)N1CCC[C@@H](Nc2ncnc3[nH]c4ccc(Oc5ccccc5)cc4c(=O)c23)C1, the IC50 [1] is reported as > 10000 nM.

In the case of C=CC(=O)N1CCCCC(n2nc(-c3ccc(Oc4ccccc4)cc3)c3c(N)n[nH]c(=O)c32)C1 (stereo not drawn), the IC50 [1] is reported as 6.7 nM.

Compound C=CC(=O)N1CCC[C@@H](n2nc(-c3ccc(Oc4ccccc4)cc3)c3c(N)nn(C)c(=O)c32)C1 has an IC50 [1] of 160 nM.

C=CC(=O)N1CC[C@@H](n2nc(-c3ccc(Oc4ccccc4)cc3)c3c(N)n[nH]c(=O)c32)C1 showed an IC50 [1] of 1.4 nM, an AUC at 24 h [7] of 68 ng·h/mL and a Cmax [25] of 137 nM.

Compound CN(C)C/C=C/C(=O)N1CCC[C@@H](n2nc(-c3ccc(Oc4ccccc4)cc3)c3c(N)n[nH]c(=O)c32)C1 has an IC50 [1] of 2.6 nM.

C=CC(=O)NC1CCC[C@@H](n2nc(-c3ccc(Oc4ccccc4)cc3)c3c(N)n[nH]c(=O)c32)C1 (stereo partly drawn) showed an IC50 [1] of 10 nM.

C=CC(=O)N1CCC[C@@H](Nc2ncnc(N)c2C(=O)c2ccc(Oc3ccccc3)cc2)C1 showed an IC50 [1] of 921 nM.
